In paper PMC9329353, “Structures of Atm1 provide insight into [2Fe-2S] cluster export from mitochondria” (Nature Communications, 2022):

How the values were obtained:
CtAtm1 [1] = target: T1, CtAtm1 (Thermochaetoides thermophila, UniProt G0SBE6, E603Q); assay: cryo-EM structure, […] Å; conditions: nanodiscs, 1 mM ATP, 1 mM GSSG, 1 mM MgCl2; occluded state; nucleotide-binding domains
T1 construct: gene CTHT_0050000; full-length, C-terminal TEV site and His8 (pET-52b-CtATM1-TEV-His8), E. coli C43(DE3); DDM or MSP1D1 nanodiscs; homodimer; first 94 and last 26 residues not modelled (580 modelled)
T1 sequence (G0SBE6 entry or part of it E603Q): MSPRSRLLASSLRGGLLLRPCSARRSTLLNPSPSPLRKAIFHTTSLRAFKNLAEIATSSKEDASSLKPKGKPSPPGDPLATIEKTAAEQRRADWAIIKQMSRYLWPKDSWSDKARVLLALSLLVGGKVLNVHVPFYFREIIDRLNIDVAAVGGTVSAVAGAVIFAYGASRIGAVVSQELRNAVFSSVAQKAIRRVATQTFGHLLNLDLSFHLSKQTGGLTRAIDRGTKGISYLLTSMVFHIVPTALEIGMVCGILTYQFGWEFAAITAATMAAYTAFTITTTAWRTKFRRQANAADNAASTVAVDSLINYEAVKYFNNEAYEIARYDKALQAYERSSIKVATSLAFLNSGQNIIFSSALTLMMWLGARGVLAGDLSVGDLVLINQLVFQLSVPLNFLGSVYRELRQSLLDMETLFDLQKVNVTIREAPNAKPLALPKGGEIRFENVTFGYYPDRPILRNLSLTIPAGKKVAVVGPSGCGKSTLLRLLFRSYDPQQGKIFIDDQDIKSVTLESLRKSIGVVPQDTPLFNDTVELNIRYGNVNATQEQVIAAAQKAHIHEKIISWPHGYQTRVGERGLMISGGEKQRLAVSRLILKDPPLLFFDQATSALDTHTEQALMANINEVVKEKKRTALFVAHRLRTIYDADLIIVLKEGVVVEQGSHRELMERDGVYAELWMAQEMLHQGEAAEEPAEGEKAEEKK

CtAtm1 [2] = target: T2, CtAtm1 (Thermochaetoides thermophila, UniProt G0SBE6); assay: ATPase assay (phosphate release, absorbance at […] nm); assay type: biochemical; conditions: 1 mM ATP, 5 mM MgCl2, 37 °C, detergent or nanodisc; no exogenous cargo
T2 construct: gene CTHT_0050000; full-length, C-terminal TEV site and His8 (pET-52b-CtATM1-TEV-His8), E. coli C43(DE3); DDM or MSP1D1 nanodiscs; homodimer; first 94 and last 26 residues not modelled (580 modelled)
T2 sequence (G0SBE6 entry or part of it): as the sequence (G0SBE6 entry or part of it E603Q) above, with Q603E counted along it

[3] = target: CtAtm1 (ABC transporter of mitochondria 1 from Chaetomium thermophilum), wild type (Chaetomium thermophilum); assay: cryo-EM structure; wild-type CtAtm1 in lipid nanodiscs (MSP1D1), incubated with 1 mM ATP and 2 mM MgCl2 for 30 min on ice, no cargo added; inward-facing open state, 3.0 Å

Compound: Nc1ncnc2c1ncn2[C@@H]1O[C@H](COP(=O)(O)OP(=O)(O)OP(=O)(O)O)[C@@H](O)[C@H]1O [ATP]
- cryo-EM structure, 2.8 Å (CtAtm1 [1]): two ATP molecules are readily identified in the cryo-EM density
- ATPase assay (phosphate release, absorbance at 620 nm) (CtAtm1 [2]): exhibited clear and comparably robust ATP hydrolysis activity in detergent solution

Compound: CtAtm1 (ABC transporter of mitochondria 1 from Chaetomium thermophilum), wild type (natural protein)
- stoichiometry N [3]: 2
